Values quoted from earlier work, collected in patent publication US11021437B2, “Pharmaceutical formulation for sublingual or buccal delivery of epinephrine or a pro-drug thereof” (Iono Pharma, LLC, priority 2016, dated 2021).

What was measured:
[1] = in vivo
[2] = 0.01 mg/kg subcutaneously in the deltoid region

| t1/2 hydrolysis in vitro | t1/2 oxidation in vitro | time to maximum plasma epinephrine concentration [2] | SMILES | delay before onset of seizure [1] |
| --- | --- | --- | --- | --- |
| 700 days | 300 days |  | CNCC(O)c1ccc(OC(=O)C(C)(C)C)c(OC(=O)C(C)(C)C)c1 (stereo not shown) [Structure 7D, 4-(1-hydroxy-2-(methylamino)ethyl)-1,2-phenylene bis(2,2-dimethylpropanoate)] | 8 to 10 min |
|  |  | ≤ 34 ± 14 min | CNC[C@H](O)c1ccc(O)c(O)c1 [Epinephrine] |  |
